The nature of series [1]: Blood concentration measurement test (AUC after oral enteric capsule). It counts as in vivo, male beagle dogs. The conditions noted are these: for AUC(0-inf): dog, compound 1 free form measured in blood plasma, read-out: AUCinf mean; for AUC(0-inf) / AUCinf CV (coefficient of variation): male beagle dogs, fasting, oral enteric capsule, 1 mg/kg as free form. The procedure: The “monohydrochloride salt” and the “dihydrochloride salt” were respectively filled in an enteric capsule (Eudragit L coat, No. 5) to an amount of administration of 1 mg/kg in terms of the “compound 1” in a free form. The capsules were forcibly orally administered to male beagle dogs (Oriental Yeast Co., Ltd.) under fasting. 0.5, 1, 2, 3, 4, 6, 8, 10 and 24 hours after the administration, about 1 mL of blood was collected from the cephalic vein under non-anesthesia conditions, with a 2.5-mL syringe through which a heparin sodium solution had been passed through in advance (equipped with a 23 G injection needle). The collected blood was cooled in ice, and the blood plasma was separated by a centrifugal operation. After a lapse of 6 hours from the administration, the dogs were fed with a usual amount of food. The concentration of the “compound 1” in a free form in the blood plasma was measured by the LC/MS/MS method in each case, and the AUC was calculated using the Non-Compartment model of WinNonlin software v5.0.1. (in the table, AUCinf means the “AUC obtained when the blood plasma concentration was extrapolated from zero to the infinity”, mean is the “average”, SD is the “standard deviation”, and CV is the “coefficient of variation”.)

The nature of series [2]: Test for measuring solubility (Test Example 1, saturated solution by HPLC). It counts as physicochemical. The conditions noted are these: for solubility thermodynamic at 1 h: thermodynamic from solid, room temperature, read-out: Saturated solution concentration. The procedure:
About 50 mg each of the “monohydrochloride salt” and the “dihydrochloride salt” were precisely weighed, and were each suspended in a solvent so as to obtain a concentration of 500 mg/ml, respectively. Each suspension was sonicated for 10 minutes, and then was shaken at room temperature for one hour. Subsequently, each of the supernatant of the suspension was subjected to centrifugal filtration (10° C., 3000 RPM, 20 minutes) using a centrifugal filter (Ultrafree-MC PTFE 0.2 μm, manufactured by Millipore, Inc.), to thereby prepare a saturated solution. Each of the saturated solutions was analyzed by HPLC, and the concentration of the saturated solution was calculated from the peak area.

Series [3] is described as follows: Test for measuring solubility (Test Example 2, saturated solution by HPLC). The settings on record: room temperature; for solubility thermodynamic at 1 h: thermodynamic from solid, read-out: Saturated solution concentration. It counts as physicochemical. The protocol: The “dihydrochloride salt” was precisely weighed in the amounts indicated in Table 2, and 20 ml each of the solvent was added to the weighed samples. The samples were shaken for one hour at room temperature. After it was visually checked that the samples were not completely dissolved, the samples were centrifuged (10° C., 3000 RPM, 20 minutes), and the supernatant was filtered through a Membrane filter, to thereby produce saturated solutions. Each of the saturated solutions was analyzed by HPLC, and the concentration of the saturated solution was calculated from the peak area.

Setting [4] is: aqueous buffer, pH 6.8 Buffer solution (phosphate buffer solution).
The mark [5] stands for this setting: saline or isotonic, Physiological saline, shaken one hour.
The mark [6] stands for this setting: simulated gastric fluid, pH 1.2 Buffer solution (1st fluid for dissolution test).

Each structure is given as a SMILES string.

The text below walks through data of patent US20100222404A1, “INDAZOLE DERIVATIVE DIHYDROCHLORIDE” (ASAHI KASEI PHARMA CORPORATION, priority 2008, published 2010).

Consider `Cc1n[nH]c2cc(OCCNC[C@H](O)c3cccc(NS(C)(=O)=O)c3)ccc12.Cl` [monohydrochloride salt, (R)—N-[3-[2-[2-(3-methylindazol-6-yloxy)ethylamino]-1-hydroxyethyl]phenyl]methanesulfonamide hydrochloride, reference compound], for which the AUC(0-inf) in series [1] amounted to 1110 ng·h/mL. In addition, in series [1], the “AUCinf CV (coefficient of variation)” value is given as 70.0%. Moreover, the solubility thermodynamic at 1 h is 23.7 mg/mL in series [2] (setting [4]); 32.2 mg/mL in series [2] (setting [5]); 73.5 mg/mL in series [2] (setting [6]); 36.7 mg/mL in series [2] (Water, shaken one hour).
Consider `Cc1n[nH]c2cc(OCCNC[C@H](O)c3cccc(NS(C)(=O)=O)c3)ccc12.Cl.Cl` [dihydrochloride salt, (R)—N-[3-[2-[2-(3-methylindazol-6-yloxy)ethylamino]-1-hydroxyethyl]phenyl]methanesulfonamide dihydrochloride], for which the AUC(0-inf) in series [1] turned out to be 1390 ng·h/mL. Also, the “Variation of the AUC (CV) compared with the monohydrochloride salt” value in series [1] (dogs, oral administration using enteric capsules) is reported as “smaller”. Moreover, the “AUCinf CV (coefficient of variation)” value in series [1] turned out to be 29.5%. The same molecule showed a Saturated solution concentration in series [3] (Ethanol, 0.1 g in 20 ml) of 0.516 mg/mL. Moreover, the solubility thermodynamic at 1 h in series [3] (aqueous buffer, pH 4.0 Buffer solution (0.05 mol/L acetic acid/sodium acetate), 4 g in 20 ml) was 147 mg/mL; in series [3] (aqueous buffer, pH 6.8 Buffer solution (2nd fluid for dissolution test), 4 g in 20 ml), 156 mg/mL; in series [3] (saline or isotonic, Physiological saline, 5 g in 20 ml), 98.8 mg/mL; in series [3] (simulated gastric fluid, pH 1.2 Buffer solution (1st fluid for dissolution test), 4 g in 20 ml), 97.8 mg/mL; in series [3] (Water, 5 g in 20 ml) it was 143 mg/mL; in series [2] (setting [4]), 210 mg/mL. In addition, the solubility thermodynamic at 1 h in series [2] (setting [5]) was 125 mg/mL; in series [2] (setting [6]) it was 128 mg/mL; in series [2] (Water, shaken one hour), 189 mg/mL. The “Solubility compared with the monohydrochloride salt” value in series [2] (results of Table 1) was “significantly higher solubility”.
